Laboratory results as given in ChEMBL document CHEMBL1158191, “Two new aromatic constitutents from the rootwood of Aeschynomene mimosifolia” (1996).
≈ marks a conversion by molar mass, not a printed value. Calls of active or inactive are those of the source. The calls are words filed in the database; no cut-off is given here.

How the values were obtained:
KB = test: Cytotoxicity against human KB cells; assay type: functional
[1] = Induction of DNA scission activity in at 25 ug/mL
BC1 = test: Cytotoxicity against human BC1 cells; assay type: functional, cell-based
Lu1 = test: Cytotoxicity against human Lu1 cells; assay type: functional, cell-based
LNCaP = test: Cytotoxicity against human LNCAP cells; assay type: functional, cell-based
U-373MG ATCC = test: Cytotoxicity against human U373 cells; assay type: functional, cell-based
ZR-75-1 = test: Cytotoxicity against human ZR-75-1 cells; assay type: functional, cell-based

CO[C@H]1CC(=O)C=CC[C@]1(O)/C=C\c1ccccc1 [MIMOSIFOLENONE]
EC50 (KB; read-out: ED50 (the source's name)): 3.3 µg/mL (≈ 12.8 µM) | Activity [1]: inactive

C=C[C@H](c1ccccc1)c1cc(OC)c(O)cc1OC
Activity (KB): inactive | Activity (BC1): inactive | Activity (Lu1): inactive | Activity (LNCaP): inactive | Activity (U-373MG ATCC): inactive | Activity (ZR-75-1): inactive
